How the values were obtained:
RORγ LBD-GST tagged = molecular target: T1, RORγ LBD-GST tagged (Homo sapiens, UniProt P51449); assay: LanthaScreen TR-FRET RORγ coactivator assay; format: biochemical; settings: Fluorescein-D22 coactivator peptide, 1 hour room temperature
T1 construct: RORγ LBD-GST tagged (Cat No. RORC-114H, Creative Biomart); purchased Creative Biomart RORC-114H
T1 sequence (P51449 269-508 limits assumed): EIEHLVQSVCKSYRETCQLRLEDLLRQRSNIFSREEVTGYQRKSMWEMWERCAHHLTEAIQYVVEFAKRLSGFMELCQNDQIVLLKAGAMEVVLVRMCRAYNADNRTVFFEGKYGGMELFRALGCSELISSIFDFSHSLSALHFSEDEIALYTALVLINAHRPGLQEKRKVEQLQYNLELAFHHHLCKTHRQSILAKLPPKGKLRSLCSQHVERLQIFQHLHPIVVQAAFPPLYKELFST
Procedure, shortened: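 GST-tagged RORγ LBD (25 ng/reaction) was incubated in coregulator buffer D with 5 mM DTT and compound (top 3 μM, 7-fold steps, 7 doses), then with a mix containing 0.6 μM fluorescein-D22 peptide and 8 nM Tb anti-GST antibody. After 1 h at room temperature in the dark, 520/495 nm TR-FRET was read. IC50 came from log concentration versus percent inhibition.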

[1] = tested on: IL-17 production, human PBMC cells; assay: IL-17 production assay using human PBMC; format: cell-based; settings: human PBMC stimulated by cytostim for 3 days, IL-17 ELISA of supernatant
Description: Test Example 2. IL-17 Production Assay Using Human PBMC
• 1. Human PBMC cells (Cat No. 70025.1, Zenbio) • 2. Lymphocyte medium (Cat No. LYMPH-1, Zenbio) • 3. TexMACS (Cat No. 130-097-196, Miltenyi) • 4. Cytostim-human (Cat No. 1130-092-173, Miltenyi) • 5. Human IL-17 ELISA (Cat No. D1700, R&D systems) • 6. Tecan Infinite M1000 plate reader (Tecan)
Experimental Procedure for IL-17 Production Assay
Cryopreserved peripheral blood human mononuclear cells (PBMCs) were rapidly thawed in warmed Lymphocyte media, and centrifuged cell suspension at 1000 rpm for 10 minutes. The supernatant was removed, and the cell pellets were gently resuspended in TexMACS media.
Human PBMC cells in TexMACS media were plated at 1×10^5 each well in triplicate. The test compounds at various concentrations or vehicle control (<0.5% DMSO) were added into cell culture. The cells were stimulated by cytostim (10 μL/mL) for 3 days in a humidified, 5% CO2 incubator at 37° C.
After incubation, the cell culture supernatant was harvested, and then removed particulates by centrifugation. Human IL-17 in the supernatant was measured using human IL-17 ELISA kit according to the manufacturer's protocol. IC50 values were determined using GraphPad Prism by plotting the compounds concentration versus percent inhibition.

| IC50 (RORγ LBD-GST tagged) [µM] | SMILES | IC50 ([1]; Homo sapiens, PBMC, 72 h) [µM] | IC50 [1] [µM] |
| --- | --- | --- | --- |
| 0.171 | CCS(=O)(=O)c1ccc(Cc2nc3c(C)c(-c4ccccc4C(F)(F)F)c(C)cc3[nH]2)cc1 [Example 115, 2-(4-(ethylsulfonyl)benzyl)-4,6-dimethyl-5-(2-(trifluoromethyl)phenyl)-1H-benzo[d]imidazole] | – | – |
| 0.235 | CCS(=O)(=O)c1ccc(C(CO)c2nc3c(C)c(-c4ccccc4C(F)(F)F)c(C)cc3[nH]2)cc1 (stereo not drawn) [Example 116, 2-(4,6-dimethyl-5-(2-(trifluoromethyl)phenyl)-1H-benzo[d]imidazol-2-yl)-2-(4-(ethylsulfonyl)phenyl)ethanol] | – | – |
| 0.149 | CCS(=O)(=O)c1ccc(C(CO)c2nc3c(C)c(-c4ccccc4OC)c(C)cc3[nH]2)cc1 (stereo not drawn) [Example 117, 2-(4-(ethylsulfonyl)phenyl)-2-(5-(2-methoxyphenyl)-4,6-dimethyl-1H-benzo[d]imidazol-2-yl)ethanol] | – | – |
| 0.306 | CCS(=O)(=O)c1ccc(C(O)c2nc3c(C)c(-c4ccccc4OC)c(C)cc3[nH]2)cc1 (stereo not drawn) [Example 118, (4-(ethylsulfonyl)phenyl)(5-(2-methoxyphenyl)-4,6-dimethyl-1H-benzo[d]imidazol-2-yl)methanol] | – | – |
| 0.321 | CCS(=O)(=O)c1ccc(C(CO)c2nc3cc(-c4ccccc4OC(F)(F)F)c(F)cc3[nH]2)cc1 (stereo not drawn) [Example 120, 2-(4-(ethylsulfonyl)phenyl)-2-(6-fluoro-5-(2-(trifluoromethoxy)phenyl)-1H-benzo[d]imidazol-2-yl)ethanol] | – | – |
| 0.966 | CCS(=O)(=O)c1ccc(C(O)c2nc3cc(-c4ccccc4OC(F)(F)F)c(F)cc3[nH]2)cc1 (stereo not drawn) [Example 121, (4-(ethylsulfonyl)phenyl)(6-fluoro-5-(2-(trifluoromethoxy)phenyl)-1H-benzo[d]imidazol-2-yl)methanol] | – | – |
| 0.049 | O=S(=O)(NC1CC1)c1ccc(Cc2nc3c(Cl)c(-c4ccccc4OC(F)(F)F)c(Cl)cc3[nH]2)cc1 [Example 122, N-cyclopropyl-4-((4,6-dichloro-5-(2-(trifluoromethoxy)phenyl)-1H-benzo[d]imidazol-2-yl)methyl)benzenesulfonamide] | – | – |

The remaining lines, values behind:

| SMILES | IC50 (RORγ LBD-GST tagged) [µM] | IC50 ([1]; Homo sapiens, PBMC, 72 h) [µM] | IC50 [1] [µM] |
| --- | --- | --- | --- |
| O=S(=O)(CC1CC1)c1ccc(C(CCO)c2nc3cc(Cl)c(N4CCC(F)(F)CC4)c(Cl)c3[nH]2)cc1 (single isomer, unassigned) [3-(4-((cyclopropylmethyl)sulfonyl)phenyl)-3-(5,7-dichloro-6-(4,4-difluoropiperidin-1-yl)-1H-benzo[d]imidazol-2-yl)propan-1-ol] | 0.003 | 0.006 | – |
| O=S(=O)(CC1CC1)c1ccc(C(CCN2CCOCC2)c2nc3cc(-c4ccccc4OC(F)F)c(Cl)cc3[nH]2)cc1 (single isomer, unassigned) [164 or 165 made from Int-164A, (R or S)-4-(3-(6-chloro-5-(2-(difluoromethoxy)phenyl)-1H-benzo[d]imidazol-2-yl)-3-(4-((cyclopropylmethyl)sulfonyl)phenyl)propyl)morpholine] | 1.25 | 0.28 | – |
| O=S(=O)(CC1CC1)c1ccc(C(CCN2CCOCC2)c2nc3cc(-c4ccccc4OC(F)F)c(Cl)cc3[nH]2)cc1 (single isomer, unassigned) [164 or 165 made from Int-164B, (R or S)-4-(3-(6-chloro-5-(2-(difluoromethoxy)phenyl)-1H-benzo[d]imidazol-2-yl)-3-(4-((cyclopropylmethyl)sulfonyl)phenyl)propyl)morpholine] | 0.418 | – | 0.35 |
| CC(=O)NCCC(c1ccc(S(=O)(=O)CC2CC2)cc1)c1nc2cc(-c3ccccc3OC(F)F)c(Cl)cc2[nH]1 (single isomer, unassigned) [166 or 167 made from Int-164A, (R or S)—N-(3-(6-chloro-5-(2-(difluoromethoxy)phenyl)-1H-benzo[d]imidazol-2-yl)-3-(4-((cyclopropylmethyl)sulfonyl)phenyl)propyl)acetamide] | 0.01 | 0.066 | – |
| CC(=O)NCCC(c1ccc(S(=O)(=O)CC2CC2)cc1)c1nc2cc(-c3ccccc3OC(F)F)c(Cl)cc2[nH]1 (single isomer, unassigned) [166 or 167 made from Int-164B, (R or S)—N-(3-(6-chloro-5-(2-(difluoromethoxy)phenyl)-1H-benzo[d]imidazol-2-yl)-3-(4-((cyclopropylmethyl)sulfonyl)phenyl)propyl)acetamide] | 0.047 | – | 0.072 |
| CCS(=O)(=O)c1ccc(C(CCO)c2nc3c(Cl)c(N4CCC(F)(F)CC4)c(Cl)cc3[nH]2)cc1 (single isomer, unassigned) [the shorter retention time of 139 and 140] [3-(4,6-dichloro-5-(4,4-difluoropiperidin-1-yl)-1H-benzo[d]imidazol-2-yl)-3-(4-(ethylsulfonyl)phenyl)propan-1-ol] | – | – | 0.214 |
| CCS(=O)(=O)c1ccc(C(CC(N)=O)c2nc3c(Cl)c(N4CCC(F)(F)CC4)c(Cl)cc3[nH]2)cc1 (single isomer, unassigned) [the shorter retention time of 146 and 147] [3-(4,6-dichloro-5-(4,4-difluoropiperidin-1-yl)-1H-benzo[d]imidazol-2-yl)-3-(4-(ethylsulfonyl)phenyl)propanamide] | – | – | 0.315 |
| CC(C)Oc1ccccc1-c1cc2nc(C(CC(N)=O)c3ccc(S(=O)(=O)CC4CC4)cc3)[nH]c2cc1Cl (single isomer, unassigned) [the shorter retention time of 148 and 149] [3-(6-chloro-5-(2-isopropoxyphenyl)-1H-benzo[d]imidazol-2-yl)-3-(4-((cyclopropylmethyl)sulfonyl)phenyl)propanamide] | – | – | 0.555 |
| CC(C)Oc1ccccc1-c1cc2nc(C(CCO)c3ccc(S(=O)(=O)CC4CC4)cc3)[nH]c2cc1Cl (single isomer, unassigned) [the shorter retention time of 150 and 151] [3-(6-chloro-5-(2-isopropoxyphenyl)-1H-benzo[d]imidazol-2-yl)-3-(4-((cyclopropylmethyl)sulfonyl)phenyl)propan-1-ol] | – | – | 0.718 |
| NC(=O)CC(c1ccc(S(=O)(=O)CC2CC2)cc1)c1nc2cc(-c3ccccc3OC(F)F)c(Cl)cc2[nH]1 (single isomer, unassigned) [the shorter retention time of 152 and 153] [3-(6-chloro-5-(2-(difluoromethoxy)phenyl)-1H-benzo[d]imidazol-2-yl)-3-(4-((cyclopropylmethyl)sulfonyl)phenyl)propanamide] | – | – | 0.86 |
| O=S(=O)(CC1CC1)c1ccc(C(CCO)c2nc3cc(-c4ccccc4OC(F)F)c(Cl)cc3[nH]2)cc1 (single isomer, unassigned) [the shorter retention time of 155 and 156] [3-(6-chloro-5-(2-(difluoromethoxy)phenyl)-1H-benzo[d]imidazol-2-yl)-3-(4-((cyclopropylmethyl)sulfonyl)phenyl)propan-1-ol] | – | – | 0.135 |
| NC(=O)CC(c1ccc(S(=O)(=O)CC2CC2)cc1)c1nc2cc(Cl)c(N3CCC(F)(F)CC3)c(Cl)c2[nH]1 (single isomer, unassigned) [the shorter retention time of 162 and 163] [3-(4-((cyclopropylmethyl)sulfonyl)phenyl)-3-(5,7-dichloro-6-(4,4-difluoropiperidin-1-yl)-1H-benzo[d]imidazol-2-yl)propanamide] | – | – | 0.069 |
| CCS(=O)(=O)c1ccc(C(CO)c2nc3c(F)c(-c4ccccc4F)c(F)cc3[nH]2)cc1 (stereo not drawn) [Example 112, 2-(4,6-difluoro-5-(2-fluorophenyl)-1H-benzo[d]imidazol-2-yl)-2-(4-(ethylsulfonyl)phenyl)ethanol] | 0.076 | – | – |
| CCS(=O)(=O)c1ccc(C(O)c2nc3c(F)c(-c4ccccc4OC)c(F)cc3[nH]2)cc1 (stereo not drawn) [Example 113, (4,6-difluoro-5-(2-methoxyphenyl)-1H-benzo[d]imidazol-2-yl)(4-(ethylsulfonyl)phenyl)methanol] | 0.18 | – | – |
| CCS(=O)(=O)c1ccc(C(CO)c2nc3c(F)c(-c4ccccc4)c(F)cc3[nH]2)cc1 (stereo not drawn) [Example 114, 2-(4,6-difluoro-5-phenyl-1H-benzo[d]imidazol-2-yl)-2-(4-(ethylsulfonyl)phenyl)ethanol] | 0.564 | – | – |

— patent US12187684B2, “Benzimidazole derivatives as modulators of retinoid-related orphan receptor gamma (RORγ) and pharmaceutical use thereof” (Jiangsu Hengrui Medicine Co., Ltd., priority 2018, dated 2025)
